Measured values taken from patent publication US20060172953A1, “Treatment of benign prostatic hyperplasia using energolytic agents” (Threshold Pharmaceuticals Inc., priority 2003, published 2006).

Columns and labels:
[1] = test system: human prostate epithelial cells; experiment: Apoptosis assay in primary cultures of prostate epithelial cells; type: cell-based; conditions: primary cultures of prostate epithelial cells (accumulate citrate)
Description: (§1) Primary Cell Cultures: Primary cultures of human prostate epithelial cells (Cambrex No CC-2555) and human prostate stromal cells (Cambrex No CC-2508) were obtained from Cambrex Bio Science Rockland, Inc. (191 Thomaston Street, Rockland, Me. 04841). Apoptosis assay: […] Lonidamine was added into each well at different concentrations, and then incubated for 6 h at 37° C. To assess the caspase 3 activity, the homogeneous buffer and caspase 3 substrate (Promega No G7791; Promega Corporation, 2800 Woods Hollow Road, Madison Wis. USA 53711) were added into each well in the presence or absence of caspase 3 inhibitor (Promega No G5961). The fluorescence intensity of cleaved substrate was determined using a fluorescence plate reader at excitation 485 nm and emission 530 nm.

PC3 cells = experiment: Apoptosis (caspase 3 activation) in citrate-oxidizing PC3 cells; type: cell-based, human; conditions: LNCaP vs PC3 (citrate-oxidizing) cells
Description: as §1, with “Immunoblotting: Immunoblotting was carried out as described in Example 2. […]” for “Primary Cell Cultures: Primary cultures of human prostate epithelial cells (Cambrex No CC-2555) and human prostate stromal cells (Cambrex No CC-2508) were obtained from Cambrex Bio Science Rockland, Inc. (191 Thomaston Street, Rockland, Me. 04841).”

HIF-1α [2] = experiment: HIF-1α expression in PC3 cells (immunoblot of nuclear and whole-cell extracts); type: cell-based, human; conditions: 4 hours, dose-dependent
From the text: (§2) See Franklin et al.; 1995, Endocrine 3:603-607. […] 20108 USA. Methods: […]

[3] = test system: human prostate stromal cells; experiment: Apoptosis assay in primary cultures of prostate stromal cells; type: cell-based; conditions: primary cultures of prostate stromal cells (do not accumulate citrate)
Description: as §1

HIF-1α [4] = experiment: HIF-1α expression in LNCaP cells (immunoblot of nuclear and whole-cell extracts); type: cell-based, human; conditions: for reduction of HIF-1α expression/accumulation (nuclear fraction): citrate-producing cell cultured under hypoxia
From the text: as §2

[5] = test system: actin, caspase 3, NF-κB, IκBα; experiment: Protein levels of actin, caspase 3, NF-κB, IκBα (immunoblot, specificity control); type: cell-based, human; conditions: all concentrations tested except 800 μM
Description: Methods: Cells were plated at a density of 5×10^5 cells into a dish, and then maintained in 37° C. incubator (5% CO2) for 2 days. Prior to the assay, cells were rinsed twice with pre-warmed (37° C.) RPMI-1640 Medium (ATCC No. 30-2001; 10 mM HEPES; 1 mM sodium pyruvate; 2 mM L-glutamine; 4500 mg glucose/L; 1500 mg sodium bicarbonate/L). Cells were incubated with 2 ml of culture medium in the absence or presence of lonidamine at different concentrations for 4 hours at 37° C. either under normoxia or hypoxia (oxygen level <0.1%). At the end of the incubation, the dish was placed on ice, and the cells were washed rapidly twice with cold PBS buffer (4° C.). […] The protein concentration was measured using a Bio-Rad protein assay. […] To detect the expression of caspase 3, NF-κB, P65 and IκBα, the membrane was blocked with TBST-containing 5% non-fat milk for 1 h at room temperature, and the proteins were detected by incubation with the corresponding antibodies overnight at 4° C. and with the alkaline phosphatase-conjugated secondary antibody for 1 h. The specific protein was detected using a colorimetric substrate, and the intensity of each protein was quantified using an NIH image system.

LNCaP cells = experiment: Apoptosis (caspase 3 activation) in citrate-producing LNCaP cells; type: cell-based, human
Description: as §1, with “Immunoblotting: Immunoblotting was carried out as described in Example 2. […]” for “Primary Cell Cultures: Primary cultures of human prostate epithelial cells (Cambrex No CC-2555) and human prostate stromal cells (Cambrex No CC-2508) were obtained from Cambrex Bio Science Rockland, Inc. (191 Thomaston Street, Rockland, Me. 04841).”

## O=C(O)c1nn(Cc2ccc(Cl)cc2Cl)c2ccccc12 [lonidamine, 1-(2,4-dichlorobenzyl)-1H-indazole-3-carboxylic acid]
[1]
  induction of apoptosis: induced apoptosis only in prostate epithelial cells in a dose-dependent manner
PC3 cells
  activation of caspase 3, LNCaP compared with PC3: to a much greater extent than in citrate-oxidizing cells (PC3)
HIF-1α [2]; hypoxic conditions (oxygen <0.1%)
  level of HIF-1α protein in nuclear and whole-cell extracts: reduced the level of HIF-1α protein
HIF-1α [2]; normoxic conditions
  level of HIF-1α protein in nuclear and whole-cell extracts: reduced the level of HIF-1α protein
[3]
  induction of apoptosis: induction of apoptosis was not observed
HIF-1α [4]; LNCaP cells, hypoxic conditions (oxygen <0.1%), 4 hours, dose-dependent
  level of HIF-1α protein in nuclear and whole-cell extracts: reduced the level of HIF-1α protein
HIF-1α [4]; 200 micromolar lonidamine
  reduction of HIF-1α expression/accumulation (nuclear fraction): about 2 fold
HIF-1α [4]; higher lonidamine concentrations (above 200 micromolar)
  reduction of HIF-1α expression/accumulation (nuclear fraction): more than 5 fold
HIF-1α [4]; hypoxic conditions (oxygen level <0.1%), LNCaP vs PC3
  effect on HIF-1α expression, LNCaP compared with PC3: more pronounced in LNCaP cells than in PC3 cells
[5]
  inhibition of protein levels of actin, caspase 3, NF-κB, or IκBα: no detectable inhibition
LNCaP cells; LNCaP (citrate-producing) cells
  activation of caspase 3: induced activation of caspase 3
LNCaP cells; lonidamine-treated cells
  time course of caspase 3 activation: time-dependent process
